Patent US20090092603A1, “EARLY DIAGNOSIS AND TREATMENT OF DRUG RESISTANCE IN MUC1-POSITIVE CANCER” (priority 2007, published 2009)
Like-named read-outs stand apart in the source and are kept apart here.

System: HERCEPTIN-resistant BTRes1 cells
Details: drug with control Fab, compared to BT474

Compound: O=P1(N(CCCl)CCCl)NCCCO1 (centres unmarked) [cyclophosphamide]
- cytotoxic effect of the drug in cells that acquired HERCEPTIN® resistance: acquired resistance
- cytotoxic effect of the drug in cells that acquired HERCEPTIN® resistance (listed as Cyclophosphamide): lost
